{"source": "patent US5595756A", "about": "“Liposomal compositions for enhanced retention of bioactive agents” (Inex Pharmaceuticals Corporation, priority 1993, dated 1997)", "key": {"[1]": {"tested_on": "P388 lymphocytic leukemia", "experiment": "P388 antitumor activity (murine lymphocytic leukemia model), free and liposomal vincristine i.v.", "conditions": "for Median Survival / 60-day Survival: i.v.; for Median Survival: saline control 10.0; for 60-day Survival: survivors/total; for % ILS (increase in life span): from median survival, treated vs saline control", "procedure": "The antitumor effects of liposomal vincristine were monitored using the P388 lymphocytic leukemia model. BDF1 mice (5 per group) were injected i.p. with 1×10^6 P388 cells. The indicated doses of saline or liposomal vincristine were administered (i.v.) 24 h after tumor inoculation. Animal weights and mortality were monitored daily. Mean and median survival times as well as the statistical significance of the results were determined using the Mann-Whitney-Wilcoxon procedure.\nMurine P388 antitumor activity of the DSPC/Chol/GM1 pH 2 liposomal vincristine preparation was compared to free drug and DSPC/Chol pH 4 liposomal vincristine (Table I below)."}, "[2]": {"experiment": "Drug induced weight change in P388-bearing mice (% wt change on day 7)", "format": "in vivo, BDF1 mice", "conditions": "i.v.", "from_the_text": "Animal weights and mortality were monitored daily."}, "[3]": {"conditions": "drug dose 1.0 mg/kg, lipid dose 10 mg/kg"}, "[4]": {"conditions": "drug dose 2.0 mg/kg, lipid dose 20 mg/kg"}, "[5]": {"conditions": "drug dose 3.0 mg/kg, lipid dose 30 mg/kg"}}}
{"smiles": "CC[C@]1(O)C[C@H]2CN(CCc3c([nH]c4ccccc34)[C@@](C(=O)OC)(c3cc4c(cc3OC)N(C=O)[C@H]3[C@@](O)(C(=O)OC)[C@H](OC(C)=O)[C@]5(CC)C=CCN6CC[C@]43[C@@H]65)C2)C1", "note": "[Free Vincristine]", "values": [{"measurement": "Median Survival", "setting": "[1]; [3]", "value": 14.0, "unit": "days"}, {"measurement": "60-day Survival", "setting": "[1]; [3]", "value": "0/5"}, {"measurement": "% ILS (increase in life span)", "setting": "[1]; drug dose 1.0 mg/kg", "value": 40, "unit": "%"}, {"measurement": "Median Survival", "setting": "[1]; [4]", "value": 15.0, "unit": "days"}, {"measurement": "60-day Survival", "setting": "[1]; [4]", "value": "0/5"}, {"measurement": "% ILS (increase in life span)", "setting": "[1]; drug dose 2.0 mg/kg", "value": 50, "unit": "%"}, {"measurement": "Median Survival", "setting": "[1]; [5]", "value": 16.0, "unit": "days"}, {"measurement": "60-day Survival", "setting": "[1]; [5]", "value": "0/5"}, {"measurement": "% ILS (increase in life span)", "setting": "[1]; drug dose 3.0 mg/kg", "value": 60, "unit": "%"}, {"measurement": "long-term survivors", "setting": "[1]; long-term = >70 days", "value": "No long-term survivors"}, {"measurement": "% wt change on day 7", "setting": "[2]; [3]", "value": "+1.9%"}, {"measurement": "% wt change on day 7", "setting": "[2]; [4]", "value": "+0.5%"}, {"measurement": "% wt change on day 7", "setting": "[2]; [5]", "value": -13.4, "unit": "%"}]}
